Our source for the IC50 values is patent US10093623B2, “Cyclic amides as MetAP-2 inhibitors” (MERCK PATENT GmbH, priority 2012, dated 2018).

The assay addresses MetAP-2 (Homo sapiens, UniProt P50579). Description: MetAP-2 activity measurement (coupled enzymatic reactions, Met-Arg-Ser substrate, dianisidine detection at 450 nm). The format is biochemical. The settings on record: Inhibition of MetAP-2; read-out: IC50 enzyme. The procedure, abridged:
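Coupled continuous assay with Met-Arg-Ser tripeptide substrate: released methionine oxidised by L-amino acid oxidase to give H2O2, which peroxidase uses to oxidise dianisidine, followed at 450 nm. Activity taken as slope of absorbance versus time over the visually linear region; dianisidine extinction coefficient converts to mol Met per time.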

Sequence of MetAP-2 (P50579 whole entry, species assumed): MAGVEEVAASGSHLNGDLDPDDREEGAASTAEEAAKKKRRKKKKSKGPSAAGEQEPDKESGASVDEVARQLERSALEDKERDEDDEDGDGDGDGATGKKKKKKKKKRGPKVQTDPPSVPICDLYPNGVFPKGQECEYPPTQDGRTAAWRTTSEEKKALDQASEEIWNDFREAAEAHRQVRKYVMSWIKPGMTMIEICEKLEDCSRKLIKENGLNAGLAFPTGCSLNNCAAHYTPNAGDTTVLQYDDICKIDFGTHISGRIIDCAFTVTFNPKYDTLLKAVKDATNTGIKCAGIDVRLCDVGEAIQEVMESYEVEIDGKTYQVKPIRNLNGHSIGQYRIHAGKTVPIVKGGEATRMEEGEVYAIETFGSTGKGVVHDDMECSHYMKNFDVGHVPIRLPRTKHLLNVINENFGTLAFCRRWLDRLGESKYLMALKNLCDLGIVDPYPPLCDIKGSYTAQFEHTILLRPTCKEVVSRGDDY

As usually defined, the IC50 is the midpoint of a concentration-inhibition curve. As for `CCNC(=O)c1cc2cc(N3CC[C@](O)(C(=O)NCc4cc(F)cc(Cl)c4)C3=O)ccc2o1` [A194, N-(3-Chloro-5-fluorobenzyl)-(S)-1-(2-ethylcarbamoylbenzofuran-5-yl)-3-hydroxy-2-oxopyrrolidine-3-carboxamide], the IC50 fell in the range of 10 to 1000 nM.
With `CCNC(=O)c1cc2cc(N3CC[C@@](O)(C(=O)NCc4cc(F)cc(Cl)c4)C3=O)ccc2o1` [A195, N-(3-Chloro-5-fluorobenzyl)-(R)-1-(2-ethylcarbamoylbenzofuran-5-yl)-3-hydroxy-2-oxopyrrolidine-3-carboxamide] the figure was greater than 10000 nM; with `O=C1CCc2cc(N3CCC(O)(C(=O)NCc4cccc(F)c4Cl)C3=O)ccc2N1` (stereo not shown) [A196, N-(2-Chloro-3-fluorobenzyl)-3-hydroxy-2-oxo-1-(2-oxo-1,2,3,4-tetrahydroquinolin-6-yl)-pyrrolidine-3-carboxamide], 10 to 1000 nM.
With `O=C1COc2cc(N3CC[C@](O)(C(=O)NCc4cc(F)cc(Cl)c4)C3=O)ccc2N1` [A197, N-(3-Chloro-5-fluorobenzyl)-(S)-3-hydroxy-2-oxo-1-(3-oxo-3,4-dihydro-2H-benzo-1,4-oxazin-7-yl)pyrrolidine-3-carboxamide] the figure was 10 to 1000 nM.
The result for `O=C1COc2cc(N3CC[C@@](O)(C(=O)NCc4cc(F)cc(Cl)c4)C3=O)ccc2N1` [A198, N-(3-Chloro-5-fluorobenzyl)-(R)-3-hydroxy-2-oxo-1-(3-oxo-3,4-dihydro-2H-benzo-1,4-oxazin-7-yl)pyrrolidine-3-carboxamide] reads greater than 10000 nM; that for `O=C1CCc2cc(N3CCC(O)(C(=O)NCCc4cc(F)cc(F)c4)C3=O)ccc2N1` (stereo not shown) [A199, N-[2-(3,5-Difluorophenyl)ethyl]-3-hydroxy-2-oxo-1-(2-oxo-1,2,3,4-tetrahydroquinolin-6-yl)-pyrrolidine-3-carboxamide], 10 to 1000 nM.
As to `NC(=O)c1cccc(N2CCC(O)(C(=O)NCCc3cc(F)cc(F)c3)C2=O)c1` (stereo not shown) [A201, N-[2-(3,5-Difluorophenyl)ethyl]-1-(3-carbamoylphenyl)-3-hydroxy-2-oxopyrrolidine-3-carboxamide], the IC50 was in the range of 10 to 1000 nM.
The result for `CCOC(=O)C1CCCC(N2CCC(O)(C(=O)NCc3cc(F)cc(Cl)c3)C2=O)C1` (stereo not shown) [A202, Ethyl 3-[3-(3-chloro-5-fluorobenzylcarbamoyl)-3-hydroxy-2-oxopyrrolidin-1-yl]-cyclohexanecarboxylate] reads 1000 to 10000 nM.
The result for `O=C(O)CN1CCC(O)(C(=O)NCc2cc(F)cc(Cl)c2)C1=O` (stereo not shown) [A203, [3-(3-Chloro-5-fluorobenzylcarbamoyl)-3-hydroxy-2-oxopyrrolidin-1-yl]-acetic acid] reads greater than 10000 nM; that for `NC(=O)c1cc(N2CCC(O)(C(=O)NCc3cc(F)cc(Cl)c3)C2=O)cc(C(F)(F)F)c1` (stereo not shown) [A204, N-(3-Chloro-5-fluorobenzyl)-1-(3-carbamoyl-5-trifluoromethyl-phenyl)-3-hydroxy-2-oxo-pyrrolidine-3-carboxamide], 1000 to 10000 nM; that for `CCOC(=O)c1cc2cc(N3CCC(O)(C(=O)NCc4cc(F)cc(Cl)c4)C3=O)ccc2[nH]1` (stereo not shown) [A205, Ethyl 5-[3-(3-chloro-5-fluorobenzylcarbamoyl)-3-hydroxy-2-oxopyrrolidin-1-yl]-1H-indol-2-carboxylate], 10 to 1000 nM.
The result for `O=C(NCc1cccc(F)c1Cl)C1(O)CCN(c2ccc3[nH]ccc3c2)C1=O` (stereo not shown) [A206, N-(2-Chloro-3-fluorobenzyl)-3-hydroxy-1-(1H-indol-5-yl)-2-oxo-pyrrolidine-3-carboxamide] reads 10 to 1000 nM; that for `O=C(NCCc1cc(F)cc(F)c1)C1(O)CCN(c2ccc3[nH]ccc3c2)C1=O` (stereo not shown) [A207, N-[2-(3,5-Difluorophenyl)ethyl]-3-hydroxy-1-(1H-indol-5-yl)-2-oxopyrrolidine-3-carboxamide], 10 to 1000 nM.
As for `CNC(=O)CN1CCC(O)(C(=O)NCc2cc(F)cc(Cl)c2)C1=O` (stereo not shown) [A208, N-(3-Chloro-5-fluorobenzyl)-3-hydroxy-1-methylcarbamoyl-methyl-2-oxopyrrolidine-3-carboxamide], the IC50 lay in the range of 1000 to 10000 nM.
With `O=C(NCCc1ccccc1F)C1(O)CCN(c2ccc3[nH]ccc3c2)C1=O` (stereo not shown) [A210, N-[2-(2-Fluorophenyl)ethyl]-3-hydroxy-1-(1H-indol-5-yl)-2-oxo-pyrrolidine-3-carboxamide], the IC50 lay within 10 to 1000 nM.
With `NC(=O)c1cc2cc(N3CCC(O)(C(=O)NCc4cc(F)cc(Cl)c4)C3=O)ccc2[nH]1` (stereo not shown) [A211, 5-[3-(3-Chloro-5-fluorobenzylcarbamoyl)-3-hydroxy-2-oxopyrrolidin-1-yl]-1H-indole-2-carboxamide] the figure was 10 to 1000 nM; with `O=C(NCCc1cccc(F)c1)C1(O)CCN(c2ccc3[nH]ccc3c2)C1=O` (stereo not shown) [A212, N-[2-(3-Fluorophenyl)ethyl]-3-hydroxy-1-(1H-indol-5-yl)-2-oxo-pyrrolidine-3-carboxamide], 10 to 1000 nM; with `CC(C)(C)OC(=O)N1CC(CN2CCC(O)(C(=O)NCc3cc(F)cc(Cl)c3)C2=O)C1` (stereo not shown) [A213, tert-Butyl 3-[3-(3-chloro-5-fluorobenzylcarbamoyl)-3-hydroxy-2-oxopyrrolidin-1-yl-methyl]-azetidine-1-carboxylate], 1000 to 10000 nM.
The result for `O=C1CCc2cc(N3CCC(O)(C(=O)NCc4cc(F)cc(Cl)c4)C3=O)cnc2N1` (stereo not shown) [A214, N-(3-Chloro-5-fluorobenzyl)-3-hydroxy-2-oxo-1-(7-oxo-5,6,7,8-tetrahydro-1,8-naphthyridin-3-yl)pyrrolidine-3-carboxamide] reads 10 to 1000 nM.
`NC(=O)c1cncc(N2CCC(O)(C(=O)NCc3cc(F)cc(Cl)c3)C2=O)c1` (stereo not shown) [A216, 5-[3-(3-Chloro-5-fluorobenzylcarbamoyl)-3-hydroxy-2-oxopyrrolidin-1-yl]-nicotinamide]: the IC50 was 10 to 1000 nM.
The result for `N#Cc1cc2cc(N3CCC(O)(C(=O)NCc4cc(F)cc(Cl)c4)C3=O)ccc2[nH]1` (stereo not shown) [A217, N-(3-Chloro-5-fluorobenzyl)-1-(2-cyano-1H-indol-5-yl)-3-hydroxy-2-oxopyrrolidine-3-carboxamide] reads 10 to 1000 nM; that for `O=C(NCc1cc(F)cc(Cl)c1)C1(O)CCN(CC2CNC2)C1=O` (stereo not shown) [A218, N-(3-Chloro-5-fluorobenzyl)-1-azetidin-3-ylmethyl-3-hydroxy-2-oxopyrrolidine-3-carboxamide], greater than 10000 nM.
With `O=C(NCc1cc(F)cc(Cl)c1)C1(O)CCN(CCc2c[nH]c3ccc(F)cc23)C1=O` (stereo not shown) [A219, N-(3-Chloro-5-fluorobenzyl)-1-[2-(5-fluoro-1H-indol-3-yl)ethyl]-3-hydroxy-2-oxopyrrolidine-3-carboxamide] the figure was 10 to 1000 nM.
In the case of `O=C(NCc1cc(F)cc(Cl)c1)C1(O)CCN(CC2CCOCC2)C1=O` (stereo not shown) [A220, N-(3-Chloro-5-fluorobenzyl)-3-hydroxy-2-oxo-1-(tetrahydro-pyran-4-ylmethyl)pyrrolidine-3-carboxamide], the IC50 lay in the range of 1000 to 10000 nM.
With `O=C1CCc2cc(N3CC[C@](O)(C(=O)NCCc4cc(F)cc(F)c4)C3=O)ccc2N1` [A221, N-[2-(3,5-Difluorophenyl)ethyl]-(S)-3-hydroxy-2-oxo-1-(2-oxo-1,2,3,4-tetrahydroquinolin-6-yl)-pyrrolidine-3-carboxamide] the figure was 10 to 1000 nM; with `N#Cc1c[nH]c2ccc(N3CC[C@](O)(C(=O)NCc4cc(F)cc(Cl)c4)C3=O)cc12` [A222, N-(3-Chloro-5-fluorobenzyl)-(S)-1-(3-cyano-1H-indol-5-yl)-3-hydroxy-2-oxopyrrolidine-3-carboxamide], 10 to 1000 nM; with `O=C1CCc2cc(N3CC[C@@](O)(C(=O)NCCc4cc(F)cc(F)c4)C3=O)ccc2N1` [A223, N-[2-(3,5-Difluorophenyl)ethyl]-(R)-3-hydroxy-2-oxo-1-(2-oxo-1,2,3,4-tetrahydroquinolin-6-yl)-pyrrolidine-3-carboxamide], greater than 10000 nM.
For the compound `N#Cc1c[nH]c2ccc(N3CC[C@@](O)(C(=O)NCc4cc(F)cc(Cl)c4)C3=O)cc12` [A224, N-(3-Chloro-5-fluorobenzyl)-(R)-1-(3-cyano-1H-indol-5-yl)-3-hydroxy-2-oxopyrrolidine-3-carboxamide], the IC50 lay within 1000 to 10000 nM.
The result for `O=C(NCc1cc(F)cc(Cl)c1)C1(O)CCN(C[C@H]2CCCO2)C1=O` (stereo partly drawn) [A225, N-(3-Chloro-5-fluorobenzyl)-3-hydroxy-2-oxo-1-[(R)-1-(tetrahydrofuran-2-yl)methyl]-pyrrolidine-3-carboxamide] reads 1000 to 10000 nM; that for `O=C(NCc1cc(F)cc(Cl)c1)C1(O)CCN(C[C@H]2CC[C@@H](C(=O)O)CC2)C1=O` (stereo partly shown) [A226, 4-[3-(3-Chloro-5-fluorobenzyl-carbamoyl)-3-hydroxy-2-oxo-pyrrolidin-1-ylmethyl]cyclo-hexanecarboxylic acid], 1000 to 10000 nM; that for `O=C(NCc1cc(F)cc(Cl)c1)C1(O)CCN(C[C@H]2CC[C@H](C(=O)O)CC2)C1=O` (stereo partly shown) [A227, 4-[3-(3-Chloro-5-fluorobenzyl-carbamoyl)-3-hydroxy-2-oxo-pyrrolidin-1-ylmethyl]cyclo-hexanecarboxylic acid], 1000 to 10000 nM.
On to `CC(C)(C)OC(=O)N1C[C@@H]2[C@H](C1)[C@H]2N1CCC(O)(C(=O)NCc2cc(F)cc(Cl)c2)C1=O` (stereo partly drawn) [A228, tert-Butyl (1S,5R,6S)-6-[3-(3-chloro-5-fluorobenzyl-carbamoyl)-3-hydroxy-2-oxo-pyrrolidin-1-yl]-3-azabicyclo-[3.1.0]hexane-3-carboxylate], for which the IC50 lay within 1000 to 10000 nM.
With `O=C(NCc1cc(F)cc(Cl)c1)C1(O)CCN([C@H]2[C@@H]3CNC[C@@H]32)C1=O` (stereo partly drawn) [A229, N-(3-Chloro-5-fluorobenzyl)-1-(1S,5R,6S)-3-azabicyclo-[3.1.0]hex-6-yl-3-hydroxy-2-oxo-pyrrolidine-3-carboxamide] the figure was greater than 10000 nM; with `CCS(=O)(=O)N1C[C@@H]2[C@H](C1)[C@H]2N1CCC(O)(C(=O)NCc2cc(F)cc(Cl)c2)C1=O` (stereo partly drawn) [A230, N-(3-Chloro-5-fluorobenzyl)-1-((1S,5R,6S)-3-ethanesulfonyl-3-azabicyclo[3.1.0]hex-6-yl)-3-hydroxy-2-oxopyrrolidine-3-carboxamide], 1000 to 10000 nM.
